Literature values, collected in patent US20170119788A1, “METHODS AND COMPOSITIONS FOR DERMATOLOGICAL USE COMPRISING FLUTICASONE AND MOMETASONE AND BIOPOLYMERS” (APEX LABORATORIES PRIVATE LIMITED, priority 2015, published 2017).
Read-outs that look alike come from different tables or passages of the source.

Assays:
erythrocytes = conditions: result in words
[1] = not given; remark: listed apart in the source
[2] = molecular target: T1, human glucocorticoid receptors (Homo sapiens, UniProt P04150); conditions: in vitro, result in words
T1 sequence (P04150 1-777): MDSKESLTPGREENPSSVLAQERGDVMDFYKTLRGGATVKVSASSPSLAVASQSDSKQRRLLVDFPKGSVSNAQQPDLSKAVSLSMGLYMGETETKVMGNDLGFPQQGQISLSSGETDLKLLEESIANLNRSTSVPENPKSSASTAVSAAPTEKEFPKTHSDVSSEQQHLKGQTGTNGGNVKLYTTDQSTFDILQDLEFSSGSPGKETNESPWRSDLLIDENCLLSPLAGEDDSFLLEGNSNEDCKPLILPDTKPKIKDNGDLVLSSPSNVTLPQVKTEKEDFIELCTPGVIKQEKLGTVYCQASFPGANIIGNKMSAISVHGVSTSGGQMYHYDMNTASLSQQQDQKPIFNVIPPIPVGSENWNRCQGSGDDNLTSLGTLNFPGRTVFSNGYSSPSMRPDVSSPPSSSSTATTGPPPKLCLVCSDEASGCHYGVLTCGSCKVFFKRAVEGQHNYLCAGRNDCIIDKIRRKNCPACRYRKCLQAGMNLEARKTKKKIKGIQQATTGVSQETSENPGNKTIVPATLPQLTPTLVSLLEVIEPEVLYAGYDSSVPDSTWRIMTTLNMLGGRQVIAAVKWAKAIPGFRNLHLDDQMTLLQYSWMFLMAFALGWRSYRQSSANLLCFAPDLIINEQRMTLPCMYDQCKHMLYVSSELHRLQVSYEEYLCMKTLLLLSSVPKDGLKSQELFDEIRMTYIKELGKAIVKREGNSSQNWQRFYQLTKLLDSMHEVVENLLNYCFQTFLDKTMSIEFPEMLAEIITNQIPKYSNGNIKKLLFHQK

human plasma proteins = conditions: average
human transcortin = molecular target: T2, human transcortin (Homo sapiens, UniProt P08185); conditions: result in words
T2 sequence (P08185 23-405): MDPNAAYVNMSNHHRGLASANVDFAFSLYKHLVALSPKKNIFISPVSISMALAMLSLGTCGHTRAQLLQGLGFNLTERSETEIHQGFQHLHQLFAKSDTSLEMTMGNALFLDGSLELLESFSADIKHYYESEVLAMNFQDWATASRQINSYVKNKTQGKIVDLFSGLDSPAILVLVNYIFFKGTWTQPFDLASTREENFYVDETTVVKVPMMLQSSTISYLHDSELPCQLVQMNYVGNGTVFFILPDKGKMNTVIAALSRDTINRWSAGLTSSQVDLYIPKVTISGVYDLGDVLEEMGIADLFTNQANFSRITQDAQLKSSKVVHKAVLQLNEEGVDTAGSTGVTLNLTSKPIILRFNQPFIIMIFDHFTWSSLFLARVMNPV

[3] = not given; remark: listed apart in the source
[4] = not given; remark: listed apart in the source

Compound	solubility in dimethyl sulfoxide and dimethylformamide (dimethyl sulfoxide and dimethylformamide)	solubility in methanol and 95% ethanol (methanol and 95% ethanol)	solubility in water (water)	binding to erythrocytes (erythrocytes)	apparent volume of distribution, average [1] [L/kg]	terminal half-life, average [1] [h]	affinity and agonist activity at human glucocorticoid receptors [2]	percentage bound to human plasma proteins (human plasma proteins) [%]	binding to human transcortin (human transcortin)	bioavailability of an inhaled dose ([3]; compared with IV administration)	excretion in the feces ([3]; up to 7 days) [%]	excretion in the urine ([3]; up to 7 days) [%]	solubility in ethyl alcohol ([4]; ethyl alcohol)	solubility in octanol ([4]; octanol)	solubility in water ([4]; water)
CCC(=O)O[C@]1(C(=O)SCF)[C@H](C)C[C@H]2[C@@H]3C[C@H](F)C4=CC(=O)C=C[C@]4(C)[C@@]3(F)[C@@H](O)C[C@@]21C [Fluticasone propionate, S-(fluoromethyl)6α,9-difluoro-11β-17-dihydroxy-16α-methyl-3-oxoandrosta-1,4-diene-17β-carbothioate, 17-propionate]	freely soluble	slightly soluble	practically insoluble	weakly and reversibly bound	4.2	7.2	strong affinity and agonist activity	91	not significantly bound	–	–	–	–	–	–
C[C@@H]1C[C@H]2[C@@H]3CCC4=CC(=O)C=C[C@]4(C)[C@@]3(Cl)[C@@H](O)C[C@]2(C)[C@@]1(OC(=O)c1ccco1)C(=O)CCl [Mometasone Furoate, 9α, 21-dichloro-11β, 17-dihydroxy-16α-methylpregna-1,4-diene-3, 20-dione 17-(2-Furoate)]	–	–	–	–	–	–	–	–	–	less than 1%	74	8	moderately soluble	slightly soluble	practically insoluble
